Experiment: wn = mass fraction of the nth substance listed
Details: 101 kPa, Liquid; for viscosity: Capillary tube (Ostwald / Ubbelohde) method; for speed of sound: Linear variable-path acoustic interferometer; for mass density: Pycnometric method

OC[C@H]1O[C@@](CO)(O[C@H]2O[C@H](CO)[C@@H](O)[C@H](O)[C@H]2O)[C@@H](O)[C@@H]1O [D-sucrose] + O
Details | mass density [kg/m3] | speed of sound [m/s] | viscosity [mPa·s]
293.15 K, w1 = 0.05 | 1018.91 | 1501.4 | 1.214
293.15 K, w1 = 0.1 | 1039.28 | 1522.5 | 1.376
293.15 K, w1 = 0.15 | 1060.31 | 1533.4 | 1.609
293.15 K, w1 = 0.2 | 1082.73 | 1545.2 | 1.932
298.15 K, w1 = 0.05 | 1017.19 | 1516.5 | 1.011
298.15 K, w1 = 0.1 | 1037.45 | 1531.8 | 1.183
298.15 K, w1 = 0.15 | 1058.49 | 1543.6 | 1.418
298.15 K, w1 = 0.2 | 1080.77 | 1555.3 | 1.756
303.15 K, w1 = 0.05 | 1015.46 | 1526.6 | 0.9129
303.15 K, w1 = 0.1 | 1035.61 | 1541.8 | 1.061
303.15 K, w1 = 0.15 | 1056.67 | 1553 | 1.252
303.15 K, w1 = 0.2 | 1078.8 | 1564.6 | 1.549
308.15 K, w1 = 0.05 | 1013.72 | 1537.8 | 0.8285
308.15 K, w1 = 0.1 | 1033.76 | 1551.6 | 0.9614
308.15 K, w1 = 0.15 | 1054.84 | 1562 | 1.129
308.15 K, w1 = 0.2 | 1076.84 | 1575.2 | 1.396
313.15 K, w1 = 0.05 | 1011.98 | 1547.7 | 0.7457
313.15 K, w1 = 0.1 | 1031.93 | 1561.8 | 0.8804
313.15 K, w1 = 0.15 | 1053.01 | 1570.8 | 1.025
313.15 K, w1 = 0.2 | 1074.88 | 1583.9 | 1.25
318.15 K, w1 = 0.05 | 1010.23 | 1557.2 | 0.6946
318.15 K, w1 = 0.1 | 1030.09 | 1570.9 | 0.8179
318.15 K, w1 = 0.15 | 1051.2 | 1579.2 | 0.9402
318.15 K, w1 = 0.2 | 1072.93 | 1592.8 | 1.15

From the NIST ThermoML archive (doi:10.1016/j.jct.2012.11.001)
